How the values were obtained:
Assay in all cases: relative viability (nuclei count vs DMSO), 5 days (fraction); higher = more cells survive
ALW-II-49-7 + Navitoclax = compound: Cc1ccc(C(=O)Nc2cccc(C(F)(F)F)c2)cc1Nc1cncc(C(N)=O)c1 [ALW-II-49-7] + CC1(C)CCC(c2ccc(Cl)cc2)=C(CN2CCN(c3ccc(C(=O)NS(=O)(=O)c4ccc(N[C@H](CCN5CCOCC5)CSc5ccccc5)c(S(=O)(=O)C(F)(F)F)c4)cc3)CC2)C1 [Navitoclax] (partner 0.5 µM)
Outline: (§1)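 Cells from lung cancer lines were seeded into 1536-well plates and, one day later, dosed by pin tool. Treatments were either a single drug or a fixed dose of an anchor drug with five library-drug doses (not always all listed) in √10 steps. After 5 days, nuclei were stained in a one-step fixation (final 0.05% Triton X-100, 1% formaldehyde, 1 ug/ml Hoechst) and counted on 4× images, and relative viability is the treated-to-vehicle nuclei ratio, as the median of duplicate plates.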

ALW-II-49-7 + Alpelisib = compound: Cc1ccc(C(=O)Nc2cccc(C(F)(F)F)c2)cc1Nc1cncc(C(N)=O)c1 [ALW-II-49-7] + Cc1nc(NC(=O)N2CCC[C@H]2C(N)=O)sc1-c1ccnc(C(C)(C)C(F)(F)F)c1 [Alpelisib] (partner 2 µM)
Outline: as §1

Dasatinib + Luminespib = compound: Cc1nc(Nc2ncc(C(=O)Nc3c(C)cccc3Cl)s2)cc(N2CCN(CCO)CC2)n1 [Dasatinib] + CCNC(=O)c1noc(-c2cc(C(C)C)c(O)cc2O)c1-c1ccc(CN2CCOCC2)cc1 [Luminespib] (partner 0.01 µM)
Outline: as §1

Dasatinib + Vorinostat = compound: Cc1nc(Nc2ncc(C(=O)Nc3c(C)cccc3Cl)s2)cc(N2CCN(CCO)CC2)n1 [Dasatinib] + O=C(CCCCCCC(=O)Nc1ccccc1)NO [Vorinostat] (partner 1 µM)
Outline: as §1

Row | Cell Line | relative viability (ALW-II-49-7 + Navitoclax; first compound 0.08 µM) | relative viability (ALW-II-49-7 + Navitoclax; first compound 0.253 µM) | relative viability (ALW-II-49-7 + Navitoclax; first compound 0.8 µM) | relative viability (ALW-II-49-7 + Navitoclax; first compound 2.53 µM) | relative viability (ALW-II-49-7 + Navitoclax; first compound 8 µM) | relative viability (ALW-II-49-7 + Alpelisib; first compound 0.08 µM) | relative viability (ALW-II-49-7 + Alpelisib; first compound 0.253 µM) | relative viability (ALW-II-49-7 + Alpelisib; first compound 0.8 µM) | relative viability (ALW-II-49-7 + Alpelisib; first compound 2.53 µM) | relative viability (ALW-II-49-7 + Alpelisib; first compound 8 µM) | relative viability (Dasatinib + Luminespib; first compound 0.005 µM) | relative viability (Dasatinib + Luminespib; first compound 0.01581 µM) | relative viability (Dasatinib + Luminespib; first compound 0.05 µM) | relative viability (Dasatinib + Luminespib; first compound 0.1581 µM) | relative viability (Dasatinib + Luminespib; first compound 0.5 µM) | relative viability (Dasatinib + Vorinostat; first compound 0.005 µM) | relative viability (Dasatinib + Vorinostat; first compound 0.01581 µM) | relative viability (Dasatinib + Vorinostat; first compound 0.05 µM) | relative viability (Dasatinib + Vorinostat; first compound 0.1581 µM) | relative viability (Dasatinib + Vorinostat; first compound 0.5 µM)
1 | EMC-BAC-2 | 0.972 | 1.19 | 1.18 | 1.01 | 1.07 | 0.843 | 0.703 | 0.758 | 0.715 | 0.645 | 0.978 | 0.93 | 0.942 | 0.558 | 0.44 | 0.392 | 0.308 | 0.273 | 0.22 | 0.172
2 | NCI-H1734 | 0.778 | 0.954 | 0.822 | 0.634 | 0.665 | 0.645 | 0.774 | 0.657 | 0.694 | 0.577 | 0.185 | 0.191 | 0.159 | 0.167 | 0.156 | 0.721 | 0.71 | 0.703 | 0.529 | 0.496
3 | NCI-H1395 | 1.28 | 1.16 | 1.01 | 0.307 | 1.22 | 1.22 | 1.1 | 1.04 | 0.307 | 1.09 | 0.684 | 0.627 | 0.663 | 0.443 | 0.363 | 0.722 | 0.762 | 0.515 | 0.291 | 0.387
4 | HOP-62 | 1.03 | 0.866 | 1.02 | 0.485 | 0.67 | 1.05 | 1.13 | 1.14 | 0.499 | 0.955 | 0.853 | 0.858 | 0.92 | 0.648 | 0.485 | 0.738 | 0.606 | 0.642 | 0.293 | 0.132
5 | LK-2 | 0.887 | 0.802 | 0.945 | – | 0.745 | 1.14 | 1.09 | 1.02 | 0.74 | 0.967 | 0.188 | 0.194 | 0.156 | 0.158 | 0.195 | 0.314 | 0.288 | 0.21 | 0.19 | 0.148
6 | SW 1573 | 1.01 | 0.932 | 1.21 | 1.11 | 0.787 | 0.911 | 0.684 | 0.914 | 0.947 | 0.665 | 0.211 | 0.216 | 0.272 | 0.139 | 0.154 | 0.968 | – | 0.649 | 0.538 | 0.491
7 | SK-LU-1 | 1.09 | 0.769 | 1.2 | 0.585 | 0.474 | 0.966 | 1.01 | 1.11 | 0.674 | 0.558 | 0.162 | 0.15 | 0.151 | 0.104 | 0.118 | 0.686 | 0.647 | 0.473 | 0.278 | 0.246
8 | NCI-H23 | 0.968 | 0.92 | 0.848 | 0.766 | 0.787 | 0.692 | 0.803 | 0.613 | 0.726 | 0.985 | 0.233 | 0.195 | 0.217 | 0.19 | 0.187 | 0.519 | 0.567 | 0.512 | 0.349 | 0.314
